Measured values from PubChem BioAssay (NCI).
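Cultured in 96-well plates, cells were exposed to test compound for 48 hours across five concentrations. The concentration for full growth arrest is given as TGI.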

Experiments:
Test in all cases: DTP human tumour cell line panel, 48 h
[1] = tested on: NCI-H522 lung
[2] = tested on: IGROV1 ovarian
[3] = tested on: SF-268 CNS
[4] = tested on: NCI-H460 lung
[5] = tested on: UACC-257 melanoma
[6] = tested on: MDA-N
[7] = tested on: ACHN renal
[8] = tested on: MOLT-4 leukemia
[9] = tested on: PC-3 prostate
[10] = tested on: SK-MEL-28 melanoma
[11] = tested on: SK-OV-3 ovarian
[12] = tested on: COLO 205 colon
[13] = tested on: M14 melanoma
[14] = tested on: BT-549 breast
[15] = tested on: MDA-MB-231 breast
[16] = tested on: OVCAR-5 ovarian
[17] = tested on: SF-295 CNS
[18] = tested on: RXF 393 renal
[19] = tested on: OVCAR-3 ovarian
[20] = tested on: SW-620 colon
[21] = tested on: SK-MEL-2 melanoma
[22] = tested on: NCI-H23 lung
[23] = tested on: A549 NSCLC
[24] = tested on: HS 578T breast
[25] = tested on: HCT-15 colon
[26] = tested on: NCI-H226 lung
[27] = tested on: SNB-75 CNS
[28] = tested on: EKVX NSCLC
[29] = tested on: UACC-62 melanoma
[30] = tested on: U251 CNS
[31] = tested on: DU-145 prostate
[32] = tested on: HOP-62 NSCLC
[33] = tested on: NCI/ADR-RES ovarian
[34] = tested on: HCT-116 colon
[35] = tested on: UO-31 renal
[36] = tested on: HT29 colon
[37] = tested on: SF-539 CNS
[38] = tested on: 786-0 renal
[39] = tested on: SNB-19 CNS
[40] = tested on: SN12C renal
[41] = tested on: MALME-3M melanoma
[42] = tested on: OVCAR-8 ovarian
[43] = tested on: TK-10 renal
[44] = tested on: MCF7 breast

`S=C(/N=c1\sc(Nc2ccc(Cl)cc2)nc2sc3c(c12)CCN(N1CCc2c(sc4nc(Nc5ccc(Cl)cc5)s/c(=N\C(=S)Nc5ccc(Cl)cc5)c24)C1)C3)Nc1ccc(Cl)cc1` showed a TGI [1] greater than 100 µM, a TGI [2] greater than 100 µM and a TGI [3] greater than 100 µM. For the same compound, the TGI [4] was greater than 100 µM, the TGI [5] was greater than 100 µM and the TGI [6] was 30.8 µM. For the same compound, the TGI [7] was greater than 100 µM, the TGI [8] was greater than 100 µM and the TGI [9] was 87.9 µM. The TGI [10] was greater than 100 µM, the TGI [11] was 66.4 µM and the TGI [12] was greater than 100 µM. The TGI [13] was greater than 100 µM, the TGI [14] was greater than 100 µM and the TGI [15] was 35.1 µM. It also gave a TGI [16] of 54.2 µM, a TGI [17] greater than 100 µM and a TGI [18] of 36.7 µM. It also gave a TGI [19] greater than 100 µM, a TGI [20] greater than 100 µM and a TGI [21] of 52.2 µM. It also gave a TGI [22] greater than 100 µM, a TGI [23] greater than 100 µM and a TGI [24] greater than 100 µM. It also gave a TGI [25] greater than 100 µM, a TGI [26] greater than 100 µM and a TGI [27] of 64.5 µM. The TGI [28] was greater than 100 µM, the TGI [29] was 48 µM and the TGI [30] was 61.9 µM. It also gave a TGI [31] of 64.6 µM, a TGI [32] greater than 100 µM and a TGI [33] greater than 100 µM. It also gave a TGI [34] of 31.7 µM, a TGI [35] greater than 100 µM and a TGI [36] of 36.1 µM. The TGI [37] was 35.6 µM, the TGI [38] was 31.9 µM and the TGI [39] was greater than 100 µM. For the same compound, the TGI [40] was 38.5 µM, the TGI [41] was greater than 100 µM and the TGI [42] was greater than 100 µM. The TGI [43] was greater than 100 µM and the TGI [44] was greater than 100 µM.
